Measurements from patent US6265443A, “Method for treating neuronal injury with carboxyfullerene” (priority 1997, dated 2001).
“Also recorded” adds a separate entry of the source.

Experiments:
[1] = system: NMDA receptor; assay: NMDA-stimulated 45Ca2+ accumulation in cultured neurons; type: cell-based, mouse; settings: up to 300 (M [µM], with NMDA 300 (M, 10 min
Protocol: (§1) Mouse neocortical cultures were prepared as neuron-astrocyte co-cultures (approximately 50% astrocytes) (Rose et al., 1992) or as neuronal cultures (<2% astrocytes). Mouse embryos (gestational day 15) are removed from pregnant anesthetized Swiss-Webster mice, and the neocortex is dissected away from other brain structures. After brief incubation in trypsin, the cells are dissociated by trituration, and the cell suspension is then diluted into plating medium and plated onto previously-prepared 24-well Plastek culture plates coated with poly-D-lysine/laminin (for neuronal cultures) or onto an existing bed of astrocytes (for co-cultures). After 1-2days in vitro, a partial exchange with glial conditioned medium is made for "pure" neuronal cultures, and cytosine arabinoside (3 μM) is added immediately after feeding to inhibit glial proliferation. Mixed cultures are fed biweekly with growth medium until 11-12 days in vitro, when they are fed with serum-free MS containing 2 mM L-glutamine. Unless otherwise stated, cells were used at 14-16 days in vitro.
To verify that protection against NMDA-induced neuronal cell injury was not due to a reduction in NMDA-induced calcium influx, ^45 Ca^2+ tracer studies were performed. […]

[2] = system: cortical neurons; assay: Serum deprivation apoptotic neuronal death (trypan blue); type: cell-based, mouse
Protocol: as §1, with “Mouse” for “Mouse neocortical cultures were prepared as neuron-astrocyte co-cultures (approximately 50% astrocytes) (Rose et al., 1992) or as neuronal cultures (<2% astrocytes). Mouse”

[3] = EPR free radical scavenging (hydroxyl and superoxide); settings: for anti-oxidant potency, isomers compared: EPR analysis
Protocol: FIGS. 9A and 9B show the EPR spectra of OH (from 100 μM H2 O2 in Fe^2+ by the Fenton reaction) and O2 - (from xanthine+xanthine oxidase) radicals with 100 mM 5,5-dimethyl-1-pyrolline-N-oxide (DMPO) as the spin-trapping agent. Hydroxyl radical (FIG. 9A): OH in the presence of […] alone (top), in the presence of 4 mM O-3a (middle), or in the presence of 4 mM R-3b (bottom). Superoxide radical (right): O2 - in DMPO alone (top), in the presence of 400 mM O-3a (middle), in the presence of 400 mM R-3b (bottom). […] The sample was analyzed in a quartz flat cell (60×10×0.25 mm) in a Bruker 200, X-band EPR spectrometer. Settings were power=1.6 mW, modulation=1 G, field modulation=100 Hz, R.G.=3.2×10^5.

[4] = system: wild-type animals; settings: mouse, in vivo, 15 mg/kg/day
Description: The 8 day increase in survival reached statistical significance (p=0.041), by t-test. There was no difference in survival for FALS mice who received no pumps (123 days, n=4) or those treated with saline-filled pumps (125 days, n=6).

[5] = Solubility; type: physicochemical
Description: Solutions of carboxyfullerene were translucent brown.

[6] = system: FALS mice; assay: Survival in transgenic model of ALS (FALS mice, Gurney G1 strain); type: in vivo, mouse; settings: 15 mg/kg/day, intraperitoneal mini-osmotic pumps
Protocol: The G1 line, with 18 copies and 4 times the SOD activity of wildtype animals, develops motor neuron death by 3-4 months of age, with hindlimb weakness, impaired grooming, and thinning along their flanks. Affected mice were dead before 5 months of age (Gurney et al., 1994).
C60 (C(COOH)2)3 was used to treat FALS mice (Gurney G1 strain) to determine its ability to treat FALS. At 10 weeks of age, Alzet mini-osmotic pumps (28 day, 6 (l/day, 15 mg/kg/day) containing C60 (C(COOH)2)3 (the mixed isomers, which consist of >90% O-3a) or saline were implanted intraperitoneally. The pumps were replaced at 14 weeks of age. Videotaped assessments of open field walking were performed and scored using the Bresnahan scale for spinal cord injury (Basso et al, 1995). As reported by Gurney and colleagues, these animals develop motor symptoms by approximately 90 days of age, and are moribund between 125 and 145 days of age.

[7] = system: cortical neurons; assay: AMPA-induced excitotoxic neuronal death in neuron-astrocyte co-cultures (LDH efflux); type: cell-based, mouse
Protocol: as §1, with “Mouse” for “Mouse neocortical cultures were prepared as neuron-astrocyte co-cultures (approximately 50% astrocytes) (Rose et al., 1992) or as neuronal cultures (<2% astrocytes). Mouse”

[8] = system: cortical neurons; assay: NMDA-induced excitotoxic neuronal death in neuron-astrocyte co-cultures (LDH efflux); type: cell-based, mouse
Protocol: as §1, with “Mouse” for “Mouse neocortical cultures were prepared as neuron-astrocyte co-cultures (approximately 50% astrocytes) (Rose et al., 1992) or as neuronal cultures (<2% astrocytes). Mouse”
Carboxyfullerene (3-300 (M) was co-applied to neuron-astrocyte co-cultures described above with NMDA for assessment of neuroprotection. Brief exposure to NMDA in the presence of the carboxyfullerene was carried out by triple exchange of the medium with HBBSS, followed by addition of 50 μM-500 μM NMDA plus carboxyfullerene for 10 minutes. The NMDA and carboxyfullerene were removed by quadruple exchange of the medium with MS, and the cultures were placed in the humidified, CO2 (5%), 37° C. incubator for 24 hours, when the extent of injury was assessed.

[9] = native C60; toluene or benzene; cited from earlier work
[10] = system: cortical neurons; assay: Neuroprotection, general statement; type: cell-based, mouse
Protocol: as §1, with “Mouse” for “Mouse neocortical cultures were prepared as neuron-astrocyte co-cultures (approximately 50% astrocytes) (Rose et al., 1992) or as neuronal cultures (<2% astrocytes). Mouse”

[11] = system: hepatocytes; assay: Protection in hepatocytes; type: cell-based
[12] = Spin-label/EPR membrane parameters (5- or 16-doxyl ketostearic acid in brain lipids); design: species or system mouse; settings: 16-doxylstearic acid; control 0.8
Protocol: Values are mean±SEM, n=8-12 per condition. I=p<0.05 vs. untreated injury condition, using ANOVA followed by Student-Newman-Keuls test for multiple comparisons. **=p<0.05 R-3b different than O-3a. […] The spin labels were added to lipids extracted from adult mouse brain at a ratio of 1:100. EPR settings were the same as those listed in the legend for FIGS. 9A and 9B.
^a Order parameter, S = a(T_.cent. - T .cent.)/(T - T ),
^b Correlation time, tc = 6.5 × 10^-10 wo [(ho
^c Lipid/aqueous partition factor, f = hL /hA, where hL

[13] = system: endothelial cell cultures; assay: Protection in endothelial cell cultures; type: cell-based
[14] = EPR spin-trap (DMPO) superoxide radical scavenging, xanthine + xanthine oxidase; settings: xanthine oxidase with xanthine
Protocol: (§2) FIGS. 9A and 9B show the EPR spectra of OH (from 100 μM H2 O2 in Fe^2+ by the Fenton reaction) and O2 - (from xanthine+xanthine oxidase) radicals with 100 mM 5,5-dimethyl-1-pyrolline-N-oxide (DMPO) as the spin-trapping agent. Hydroxyl radical (FIG. 9A): OH in the presence of […] alone (top), in the presence of 4 mM O-3a (middle), or in the presence of 4 mM R-3b (bottom). Superoxide radical (right): O2 - in DMPO alone (top), in the presence of 400 mM O-3a (middle), in the presence of 400 mM R-3b (bottom). The arrow designates a spurious signal due to an unknown radical in the cavity. The sample was analyzed in a quartz flat cell (60×10×0.25 mm) in a Bruker 200, X-band EPR spectrometer. Settings were power=1.6 mW, modulation=1 G, field modulation=100 Hz, R.G.=3.2×10^5.

[15] = EPR spin-trap (DMPO) hydroxyl radical scavenging; settings: for scavenging of OH: EPR
Protocol: as §2

Compound: C60 (C(COOH)2)3
- 45Ca2+ accumulation [1]: not affected
- reduction in neuronal death, serum deprivation ([2]; 10 (M [µM], 48 hours, trypan blue, 10 µM): 50%
- apoptotic neuronal death due to serum deprivation ([2]; co-application): attenuated
- scavenging ability towards OH vs potency for O2- radicals ([3]; OH over O2-): 10 fold
- body weight vs untreated littermates [4]: weights were similar
- solubility in water ([5]; water): at least 50 mM
- onset of symptoms [6]: delay in onset of symptoms
- delay in death ([6]; p=0.041 by t-test): 8 ± 2.2 days
- reduction of neuronal cell death from AMPA ([7]; 100 (M [µM], MK-801 10 (M included), 24 h, data from 4 experiments pooled, 100 µM): > 80%
- protection against AMPA excitotoxic injury ([7]; cortical neurons): protected cortical neurons against excitotoxic injury; also recorded: robust neuroprotection
- protection from NMDA, some experiments ([8]; 300 (M [µM]): nearly complete protection
- reduction of neuronal death from NMDA, all experiments ([8]; 300 (M [µM], 24 h after 10 min NMDA, 300 µM): at least 60%
- protection against NMDA excitotoxic injury ([8]; cortical neurons): protected cortical neurons against excitotoxic injury; also recorded: robust neuroprotection
- reduction in neuronal cell death (NMDA), pooled data ([8]; pooled data from three experiments, FIG. 5): 75%

Compound: c12c3c4c5c1c1c6c7c2c2c8c3c3c9c4c4c%10c5c5c1c1c6c6c%11c7c2c2c7c8c3c3c8c9c4c4c9c%10c5c5c1c1c6c6c%11c2c2c7c3c3c8c4c4c9c5c1c1c6c2c3c41 [C60, Buckminsterfullerene]
- solubility (solvents) [9]: soluble only in a limited number of solvents, such as toluene or benzene

Compound: O=C(O)C1(C(=O)O)C23c4c5c6c7c8c9c(c%10c%11c2c2c4c4c%12c5c5c6c6c8c8c%13c9c9c%10c%10c%11c%11c2c2c4c4c%12c%12c5c5c6c8c6c8c%13c9c9c%10c%10c%11c2c2c4c4c%12c5c6c5c8c9c%10c2c45)C713 [dicarboxy fullerene]
- neuroprotective efficacy vs hexacarboxy derivative [10]: less effective neuroprotectants
- solubility in aqueous solution vs hexacarboxy derivative ([5]; aqueous solution): less soluble

Compound: O=C(O)C1(C(=O)O)C23c4c5c6c7c8c4-c4c2c2c9c%10c%11c%12c(c-5c5c%13c%14c%15c%16c%17c(c-7c7c%18c%19c%20c%21c(c4C%204C(C(=O)O)(C(=O)O)C874)c2c2c9c4c%11c7c(c%13%12)c%14c8c%16c9c(c%18%17)c%19c%11c%21c2c2c4c7c8c9c%112)C%152C(C(=O)O)(C(=O)O)C652)C%1013 (stereo not shown) [O-3a]
- protection from injury in hepatocytes vs R-3b [11]: enhanced protection over R-3b
- anti-oxidant potency, isomers compared [3]: equipotent anti-oxidants
- Lipid/aqueous partition factors [12]: 1.0 ± 0.2
- protection from injury in endothelial cell cultures vs R-3b [13]: enhanced protection over R-3b
- superoxide radical signal (DMPO-OOH) [14]: eliminated the superoxide radical signal
- protection against AMPA-induced neuronal death vs R-3b ([7]; FIG. 10B, n=8-12 per condition): substantially better protection
- protection from NMDA injury vs R-3b ([8]; FIG. 10A, n=8-12 per condition): slightly better protection
- OH signal (DMPO-OH spin adduct) ([15]; 150 (M [µM], H2O2, 15 minute period): elimination of this OH signal
- scavenging of OH [15]: extremely potent scavengers of OH

Compound: O=C(O)C1(C(=O)O)C23c4c5c6c7c8c9c%10c%11c%12c%13c%14c%15c(c6c6c4c4c%16c%17c%18c(c%19c%20c2c5c8c2c%20c5c%19c8c%19c%20c(c%21c%12c%12c%22c%23c(c(c%188)C%198C(C(=O)O)(C(=O)O)C%21%228)c%17c8c4c6c%15c(c%12%14)c%238)c%11c(c92)c%205)C%1613)C71C(C(=O)O)(C(=O)O)C%13%101 (stereo not shown) [R-3b]
- neuroprotection [10]: effective neuroprotectant
- anti-oxidant potency, isomers compared [3]: equipotent anti-oxidants
- Lipid/aqueous partition factors [12]: 0.6
- superoxide radical signal (DMPO-OOH) [14]: eliminated the superoxide radical signal
- scavenging of OH [15]: extremely potent scavengers of OH
